Laboratory results: patent publication US20240360114A1 (SIRONAX LTD., priority 2021, published 2024)

System: HT-1080 cells
Assay: HT-1080 cell viability assay (ferroptosis induced by RSL3, Cell Titer-Glo)
Format: cell-based
Conditions: Homo sapiens, HT-1080, 20 h, ferroptosis inducer RSL3, 20 hours, ferroptosis inhibitory activity
Description: Example 2. Determination of EC50 Values in HT-1080 Cell Viability Assay
HT-1080 (ATCC, CCL-121) cells (6000 in 100 μl) were seeded in 96-well plates (Corning) and cultured in a 37° C. incubator with a humidified atmosphere of 5% CO2 for overnight. Cells were then treated with ferroptosis inducer RSL3 (TargetMol) and a 3-fold, 10-point serial dilution series of compounds with 1.1 μM as the highest concentration, for 20 hours. Cell viability was assessed using the Cell Titer-Glo Kit (Promega). The luminescence intensity was measured with a microplate reader (Envision, PerkinElmer), and cell viability was calculated by normalizing the data to untreated controls. The EC50 values of the compounds (e.g., Compounds 1-573 and 574-661) were calculated in GraphPad Prism (GraphPad Software, Inc., San Diego, CA, USA). The curves were fitted using a non-linear regression model with a sigmoidal dose response.

EC50 (Table 2)	EC50 (Table 3)	SMILES
0.0001 to 0.1 µM		Cc1nc(N2CC(C)OC(C)C2)ccc1NC1C2CC3CC1CC(CN)(C3)C2 (centres unmarked) [Compound 475A, N-(5-(aminomethyl)adamantan-2-yl)-6-(2,6-dimethylmorpholino)-2-methylpyridin-3-amine]
0.0001 to 0.1 µM		Cc1nc(N2CC(C)OC(C)C2)ccc1NC1CC2CC1CC2N (centres unmarked) [Compound 504, N2-(6-(2,6-dimethylmorpholino)-2-methylpyridin-3-yl)bicyclo[2.2.1]heptane-2,5-diamine]
0.1 to 1 µM		CC1CN(c2ccc(NC3CCCCC3N)cc2)CC(C)O1 (centres unmarked) [Compound 440, N1-(4-(2,6-dimethylmorpholino)phenyl)cyclohexane-1,2-diamine]
	0.0001 to 0.1 µM	CC1CN(c2ccc(NC3CC(N)C3)cc2F)CC(C)N1CC(F)(F)F (centres unmarked) [Compound 604, N1-(4-(3,5-dimethyl-4-(2,2,2-trifluoroethyl)piperazin-1-yl)-3-fluorophenyl)cyclobutane-1,3-diamine]
0.0001 to 0.1 µM		NC1CCC(Nc2ccc(N3CCC(C(F)(F)F)CC3)cc2OCCO)CC1 (centres unmarked) [Compound 485, 2-(2-((4-aminocyclohexyl)amino)-5-(4-(trifluoromethyl)piperidin-1-yl)phenoxy) ethan-1-ol]
0.0001 to 0.1 µM		CC(=O)N1C(C)CN(c2ccc(NC3CC4(CC(N)C4)C3)c(C)n2)CC1C (centres unmarked) [Compound 555, 1-(4-(5-((6-aminospiro[3.3]heptan-2-yl)amino)-6-methylpyridin-2-yl)-2,6-dimethylpiperazin-1-yl)ethan-1-one]
0.0001 to 0.1 µM		CC1CN(c2ccc(NC[C@H]3CC[C@H](N)CC3)cc2Cl)CC(C)O1 (some centres unmarked) [Compound 438, N-(((1r,4r)-4-aminocyclohexyl)methyl)-3-chloro-4-(2,6-dimethylmorpholino)aniline]
0.0001 to 0.1 µM		CC(C)C1CCN(c2ccc(NC3CCC(N)CC3)nc2)CC1 (centres unmarked) [Compound 406, N1-(5-(4-isopropylpiperidin-1-yl)pyridin-2-yl)cyclohexane-1,4-diamine]
	0.1 to 1 µM	COC(C)(C)C1CCN(c2ccc(NC3CC(N)C3)c(C)n2)CC1 (centres unmarked) [Compound 591]
0.0001 to 0.1 µM		COC1(C(F)(F)F)CCN(c2ccc(NC3CC4(CC(N)C4)C3)c(C)n2)CC1 (centres unmarked) [Compound 498, N2-(6-(4-methoxy-4-(trifluoromethyl)piperidin-1-yl)-2-methylpyridin-3-yl)spiro[3.3]heptane-2,6-diamine]
0.0001 to 0.1 µM		CCOCCOC1CCN(c2ccc(NC3CC4(CC(N)C4)C3)c(C)c2)CC1 (centres unmarked) [Compound 470, N2-(4-(4-(2-ethoxyethoxy)piperidin-1-yl)-2-methylphenyl)spiro[3.3]heptane-2,6-diamine]
0.0001 to 0.1 µM		NC1CC2(C1)CC(Nc1ccc(C3CCN(CC(F)(F)F)CC3)cc1)C2 (centres unmarked) [Compound 560, N2-(4-(1-(2,2,2-trifluoroethyl)piperidin-4-yl)phenyl)spiro[3.3]heptane-2,6-diamine]

The remaining lines, values behind:

SMILES	EC50 (Table 2)	EC50 (Table 3)
Cc1cc(N2CCC(C)(C)CC2)ccc1NC1CCC(N)CC1 (centres unmarked) [Compound 381, N1-(4-(4,4-dimethylpiperidin-1-yl)-2-methylphenyl)cyclohexane-1,4-diamine]	0.0001 to 0.1 µM	
CC(C)(C)c1ccc(NC2C3CC4CC2CC(N)(C4)C3)cc1 (centres unmarked) [Compound 95, N^4-(4-(tert-butyl)phenyl)adamantane-1,4-diamine]	0.0001 to 0.1 µM	
CC1(CN)CCC(Nc2ccc(C(C)(C)C)cc2)CC1 (centres unmarked) [Compound 339, N-(4-(aminomethyl)-4-methylcyclohexyl)-4-(tert-butyl)aniline]	0.0001 to 0.1 µM	
CCCc1ccc(NC2CCC(CN)CC2)cc1 (centres unmarked) [Compound 291, N-(4-(aminomethyl)cyclohexyl)-4-propylaniline]	0.0001 to 0.1 µM	
CC(C)(C)c1ccc(NC2CCCC(N)C2)cc1 (single isomer, unassigned) [Compound 149A, N1-(4-(tert-butyl)phenyl)cyclohexane-1,3-diamine]	0.1 to 1 µM	
CC1(C)CCC(c2ccc(NC3CCC(N)CC3)cc2)CC1 (centres unmarked) [Compound 74, N1-(4-(4,4-dimethylcyclohexyl)phenyl)cyclohexane-1,4-diamine]	0.0001 to 0.1 µM	
Cc1cc(N2CCCCC2)ccc1NC1C[C@H]2CC(N)C[C@H]2C1 (stereo partly drawn) [Compound 392, (3aR,6aS)-N2-(2-methyl-4-(piperidin-1-yl)phenyl) octahydropentalene-2,5-diamine]	0.0001 to 0.1 µM	
CC1(C)CCC(c2ccc(NC3CCC(CNC(=O)[C@@H]4CNC(=O)N4)CC3)cc2)CC1 (single isomer, unassigned) [Compound 107A]	0.0001 to 0.1 µM	
NC1CCC(Nc2ccc3ccccc3c2)CC1 (centres unmarked) [Compound 221, N1-(naphthalen-2-yl)cyclohexane-1,4-diamine]	0.0001 to 0.1 µM	
Cc1nc(N2CCC(C)(C)CC2)ccc1NC1CCC(CN)CC1 (centres unmarked) [Compound 32A, N-(4-(aminomethyl)cyclohexyl)-6-(4,4-dimethylpiperidin-1-yl)-2-methylpyridin-3-amine]	0.0001 to 0.1 µM	
NC1CCC(Nc2ccc(-n3cccn3)cc2)CC1 (centres unmarked) [Compound 37A, N1-(4-(1H-pyrazol-1-yl)phenyl)cyclohexane-1,4-diamine]	1 to 10 µM	
CCC(C)(C)c1ccc(NC2CCC(C)(N)CC2)cc1 (centres unmarked) [Compound 172, 1-methyl-N4-(4-(tert-pentyl)phenyl)cyclohexane-1,4-diamine]	0.0001 to 0.1 µM	
CC1(C)CCC(c2ccc(NC3CC(N)C3)cc2)CC1 (centres unmarked) [Compound 94, N1-(4-(4,4-dimethylcyclohexyl)phenyl)cyclobutane-1,3-diamine]	0.0001 to 0.1 µM	
CCCCOc1ccc(NC2CCC(N)CC2)cc1 (single isomer, unassigned) [Compound 142A, N1-(4-butoxyphenyl)cyclohexane-1,4-diamine]	0.0001 to 0.1 µM	
COCCOCCNc1ccc(C2CCC(C)(C)CC2)cc1 [Compound 79, 4-(4,4-dimethylcyclohexyl)-N-(2-(2-methoxyethoxy)ethyl)aniline]	0.1 to 1 µM	
CC1CCN(c2ncc(NC[C@H]3CC[C@H](N)CC3)cc2C(F)(F)F)CC1 [Compound 396, N-(((1r,4r)-4-aminocyclohexyl)methyl)-6-(4-methylpiperidin-1-yl)-5-(trifluoromethyl)pyridin-3-amine]	0.0001 to 0.1 µM	
CC1(C)CCC(c2ccc(NCCCCN)cc2)CC1 [Compound 225, N1-(4-(4,4-dimethylcyclohexyl)phenyl) butane-1,4-diamine]	0.0001 to 0.1 µM	
CCOCC(C)(C)c1ccc(NC2CCC(N)CC2)cc1 (centres unmarked) [Compound 320A, N1-(4-(1-ethoxy-2-methylpropan-2-yl)phenyl)cyclohexane-1,4-diamine]	0.1 to 1 µM	
NC1CCC(Nc2ccc(C3CCOCC3)cc2)CC1 (centres unmarked) [Compound 170, 1-N-(4-(tetrahydro-2H-pyran-+-yl)phenyl)cyclohexane-1,4-diamine]	1 to 10 µM	
N[C@H]1CC[C@@H](Nc2ccc(N3CCC(C(F)(F)F)CC3)cc2)CC1 [Compound 355, (1s,4s)-N1-(4-(4-(trifluoromethyl)piperidin-1-yl)phenyl)cyclohexane-1,4-diamine]	0.0001 to 0.1 µM	
CC(C)(C)c1ccc(NC2CCC(CNC(=N)N)CC2)cc1 (centres unmarked) [Compound 344, 1-((4-((4-(tert-butyl)phenyl)amino)cyclohexyl)methyl)guanidine]	0.0001 to 0.1 µM	
c1cc(C2CCCCC2)ccc1NC1CNC1 [Compound 109, N-(4-cyclohexylphenyl)azetidin-3-amine]	0.1 to 1 µM	
Cc1nc(N2CCC(C(F)(F)F)CC2)ccc1NC1CCC(CN)CC1 (centres unmarked) [Compound 25, N-(4-(aminomethyl)cyclohexyl)-2-methyl-6-(4-(trifluoromethyl)piperidin-1-yl)pyridin-3-amine]	0.0001 to 0.1 µM	
